Experimental findings from patent US8354381B2, “Peptide compositions for oral care systems” (E I du Pont de Nemours and Company, priority 2009, dated 2013) are described below.

Where no end group is shown, it is not given here. The star is where a group is joined. Biotin = O=C1N[C@H]2[C@H](CS[C@H]2CCCCC(=O)*)N1

The assay is described as follows: Peptide-mediated adhesion of streptavidin-coated gold particles on enamel, SEM. Type of assay: binding, bovine. Conditions: 20 μM peptide, then 50 nm streptavidin gold nanoparticles; SEM at 10000X. The method, then:
Bovine enamel incisors were obtained from SE Dental (Baton Rouge, La.). Teeth are sectioned and cut into enamel slabs approx. 5 mm on each side using a DREMEL® saw with a diamond blade. The enamel blocks are cleaned and place each in a plastic microcentrifuge tube.
Each enamel block was incubated for 45 min in phosphate buffered saline with 0.1% TWEEN® 20 (PBST) and 1 mg/mL bovine serum albumin (BSA) at room temperature (22° C.). All blocks were rinsed with PBST twice while vortexing in the microcentrifuge tube. The peptides were first diluted to 10 mM in water and then a working concentration of 20 μM was prepared in PBST with 1 mg/mL BSA. Each sample was exposed to the peptide solution or a no peptide buffer control for 30 min at room temperature. The samples were slowly rotated during incubation. The enamel blocks were removed from the peptide solution and washed four times with PBST with vortexing.
50 nm gold nanoparticles functionalized with streptavidin were obtained from Nanocs Inc (New York, N.Y.) and diluted to 0.006% wt in PBST with 1 mg/mL BSA. All enamel samples were then exposed to the gold nanoparticle solution for 1 hr at room temperature with slow rotation. […]
Each enamel sample was examined with Electron Microscopy. […] Particles were counted per micrograph and the density of particle coverage was compared (Table 14).

As for TTYHYKNIYQESYQQRNPAVHHHHHH [DenP03-D], the “Particles per μm^2 at 10000X” value is on record as 0.23 Particles per μm^2.

Regarding “TTYHYKNIYQESYQQRNPAVK(Biotin) [DenP03-C]”, the “Particles per μm^2 at 10000X” value is given as 1.75 Particles per μm^2.
